The text below walks through data of patent US20050107455A1, “Novel tricycloimidazoline derivatives method for production and use thereof as medicaments” (priority 2002, published 2005).

Molecules are shown by their SMILES. Where a name gives a salt, the structure may show the parent alone.

One may read the melting point as the temperature, or range, at which the solid turns liquid.

One series deals with T1, human alpha-2B receptor (Homo sapiens, UniProt P18089).
T1 construct: expressed in transfected cells; host or cells: C6 cells (permanent expression), membranes
T1 sequence (P18089 1-450): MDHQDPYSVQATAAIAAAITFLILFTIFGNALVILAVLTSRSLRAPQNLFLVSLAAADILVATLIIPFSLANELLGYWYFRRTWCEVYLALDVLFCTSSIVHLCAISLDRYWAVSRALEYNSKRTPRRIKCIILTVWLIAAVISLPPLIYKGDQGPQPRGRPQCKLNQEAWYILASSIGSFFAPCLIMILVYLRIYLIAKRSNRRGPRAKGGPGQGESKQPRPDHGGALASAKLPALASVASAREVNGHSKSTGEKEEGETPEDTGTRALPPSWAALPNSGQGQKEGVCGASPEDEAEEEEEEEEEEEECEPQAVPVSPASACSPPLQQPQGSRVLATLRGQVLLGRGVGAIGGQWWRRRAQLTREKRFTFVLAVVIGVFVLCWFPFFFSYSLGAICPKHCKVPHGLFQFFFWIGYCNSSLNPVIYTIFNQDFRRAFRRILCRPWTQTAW
Put plainly: Binding to the adrenergic alpha-2B receptor, [3H]RX 821002, C6 cell membranes. Conditions: membranes of C6 cells expressing human alpha-2B; 2 nM [3H]RX 821002; 30 minutes at 25° C.; read-out: Affinity (pKi) Alpha-2B (converted). The protocol: (§1) Membranes of C6 cells permanently expressing either the human alpha-2A or alpha-2B receptor are prepared in Tris-HCl (pH=7.6). The binding tests are performed with 2 nM [^3H]RX 821002. The incubation medium is composed of 0.4 ml of cell membranes (10 μg of proteins), 0.05 ml of radioligand and 0.05 ml of test product or of phentolamine (10 μM) to determine the nonspecific binding. The reaction is quenched after incubation for 30 minutes at 25° C. by adding 3 ml of cold 50 mM Tris-HCl (pH=7.6), followed by filtration through Whatman GF/B filters using a Brandel. The Ki values are calculated according to the equation Ki=IC50/(1+C/Kd) in which C is the concentration and Kd the dissociation constant, pKi=−logKi. Under these conditions, it is seen that the compounds of the invention have high affinity for the receptors of the human adrenergic alpha-2A subtype, whereas they have little or no affinity for the receptors of the human adrenergic alpha-2B subtype (cf. above table). This unexpected receptor selectivity of the compounds of the invention, compared with the compounds of the prior art, may have a favorable impact on their tolerance.

For the next series, the target named is T2, human alpha-2A receptor (Homo sapiens, UniProt P08913).
T2 construct: expressed in transfected cells; host or cells: C6 cells (permanent expression), membranes
T2 sequence (P08913 1-465): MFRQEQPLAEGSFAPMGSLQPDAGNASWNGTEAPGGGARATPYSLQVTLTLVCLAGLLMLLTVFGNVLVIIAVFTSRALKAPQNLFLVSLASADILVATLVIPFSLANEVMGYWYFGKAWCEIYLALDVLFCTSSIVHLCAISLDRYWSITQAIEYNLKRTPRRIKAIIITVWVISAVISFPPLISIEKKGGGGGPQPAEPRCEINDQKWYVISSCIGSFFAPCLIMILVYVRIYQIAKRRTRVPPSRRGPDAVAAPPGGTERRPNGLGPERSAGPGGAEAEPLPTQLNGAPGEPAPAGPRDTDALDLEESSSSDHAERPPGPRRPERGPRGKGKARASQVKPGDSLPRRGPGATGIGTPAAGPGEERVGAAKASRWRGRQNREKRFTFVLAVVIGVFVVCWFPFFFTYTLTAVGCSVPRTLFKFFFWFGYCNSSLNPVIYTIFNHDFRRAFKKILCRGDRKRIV
The series can be described thus: Binding to the adrenergic alpha-2A receptor, [3H]RX 821002, C6 cell membranes. The settings on record: membranes of C6 cells expressing human alpha-2A; 2 nM [3H]RX 821002; 30 minutes at 25° C.; read-out: Affinity (pKi) Alpha-2A (converted). The protocol:
as §1

Series [1] addresses T3, human alpha-2A adrenergic receptors (Homo sapiens, UniProt P08913).
T3 construct: host or cells: membrane preparations
T3 sequence (P08913 1-465): T2 sequence (P08913 1-465)
The series can be described thus: Measurement of the activation of the adrenergic alpha-2 receptors (GTPγS response on membrane preparations). Format: biochemical. Conditions: GTPγS response versus maximum stimulation by (−)-adrenalin, negative = inverse agonist, read-out: Intrinsic activity % stimulated. The procedure:
Measurement of the Activation of the Adrenergic Alpha-2 Receptors:
The responses as GTPγS are performed on membrane preparations in 20 mM HEPES (pH=7.4) with 30 μM of GDP, 100 mM of NaCl, 3 mM of MgCl2 and 0.2 mM of ascorbic acid. The maximum stimulation of the GTPγS is determined in the presence of […] of (−)-adrenalin and calculated versus the basal GTPγS response. The results are expressed versus either adrenalin or RX 81105-9. Under these conditions, the compounds of the invention are distinguished from most of the compounds of the prior art of the 4,5-dihydro-1H-imidazole and/or 1H-imidazole type in that they behave rather as inverse agonists on human alpha-2A adrenergic receptors (cf. above table).

Series [2] relates to Scopolamine-induced memory deficiency. The series can be described thus: Test of scopolamine-induced memory deficiency (passive avoidance). Format: in vivo. The settings on record: rats. From the text: Test of Scopolamine-Induced Memory Deficiency:
Scopolamine has amnesiant properties in man and animals. Thus, its administration to a healthy person causes certain symptoms similar to what is observed in Alzheimer's disease. Scopolamine-induced memory deficiency is thus used as an experimental pharmacological model of this pathology. Scopolamine reduces the capacity for acquisition, memorization and recall in a test of passive avoidance in rats. […] The administration of scopolamine suppresses this reticence, and the test compounds counter the effect of scopolamine. The experimental protocol used is described in Psychopharmacol. 1992, 106, 26-30.

Consider `COC1c2ccccc2C2CC21C1=NCCN1` (single isomer, unassigned; (+)) [(+) -XV-1, (+)-2-(6-Methoxy-1a,6-dihydro-1H-cyclopropa[a]inden-6a-yl)-4,5-dihydro-1H-imidazole], for which the values for the Ki at human alpha-2B receptor and on human alpha-2A receptor were > 10000 nM and 3.98 nM, respectively. Also, the Emax in series [1] was -63%.
Regarding `CO[C@H]1c2ccccc2C2C[C@]21C1=NCCN1` (mixture of isomers) [XV-1, 2-(6-Methoxy-1a,6-dihydro-1H-cyclopropa[a]-inden-6a-yl)-4,5-dihydro-1H-imidazole], in series [2] (dose 2.5 mg/kg i.p.), the “Scopolamine-induced memory deficiency amplitude of the effect %” value is “+168 (2.5) %”. Besides, the Ki at human alpha-2B receptor was 316 nM; at human alpha-2A receptor, 12.6 nM. For the same compound, the Emax in series [1] was -2%.
On to `CNCC(O)c1ccc(O)c(O)c1` (single isomer, unassigned; (-)) [(−)-adrenalin, reference compound], for which the Emax in series [1] is 100%.
Take `COc1cc2c(cc1OC)C(=O)C(CC1CCN(Cc3ccccc3)CC1)C2` (stereo not drawn) [donepezil, reference compound]: the “Scopolamine-induced memory deficiency amplitude of the effect %” value in series [2] (dose 0.16 mg/kg i.p.) was “+67 (0.16) %”.
Compound `COC1c2ccccc2C2CC21C1=NCCN1` (single isomer, unassigned; (+)) (as salt: fumarate) [(+) -XV-1, (+)-2-(6-Methoxy-1a,6-dihydro-1H-cyclopropa[a]inden-6a-yl)-4,5-dihydro-1H-imidazole] showed a melting point of 170 to 172 °C.
On the same count and under the same terms, the result for `COc1cccc2c1C1C[C@@]1(C1=NCCN1)[C@H]2OC` (stereo in doubt) (as salt: fumarate) [XV-1a, 2-(2,6-Dimethoxy-1a,6-dihydro-1H-cyclopropa[a]inden-6a-yl)-4,5-dihydro-1H-imidazole] reads 177 to 179 °C; that for `CO[C@H]1c2ccccc2C2C[C@]21C1=NCCN1` (mixture of isomers) (as salt: fumarate) [XV-1, 2-(6-Methoxy-1a,6-dihydro-1H-cyclopropa[a]-inden-6a-yl)-4,5-dihydro-1H-imidazole], 173 to 175 °C.
Still for that read-out and setting: the result for `c1ccc2c(c1)CC1(C3=NCCN3)CC21` (single isomer, unassigned; (-)) (as salt: hydrochloride) [(−)-XVII-1, (−)-2-(1a,6-Dihydro-1H-cyclopropa[a]inden-6a-yl)-4,5-dihydro-1H-imidazole] reads 245 to 247 °C.
Turning to `C[C@@H]1[C@H]2c3ccccc3C[C@@]12C1=NCCN1` (racemic) [XVII-2, 2-(1-exo-Methyl-1a,6-dihydro-1H-cyclopropa-[a]inden-6a-yl)-4,5-dihydro-1H-imidazole], the “Scopolamine-induced memory deficiency amplitude of the effect %” value in series [2] (dose 0.63 mg/kg i.p.) is given as “+181 (0.63) %”. The Ki is 20 nM at human alpha-2B receptor and 3.16 nM at human alpha-2A receptor. For the same compound, the Emax in series [1] is -64%.
`C[C@@H]1[C@H]2c3ccccc3C[C@@]12C1=NCCN1` (racemic) (as salt: fumarate) [XVII-2, 2-(1-exo-Methyl-1a,6-dihydro-1H-cyclopropa-[a]inden-6a-yl)-4,5-dihydro-1H-imidazole] registered a melting point of 133 to 135 °C.
